We go through 28 substances from patent US11034726B2, “Gene expression inhibitors” (PIVARIS BIOSCIENCE GMBH, priority 2017, dated 2021).

Ends that are not written are not given here.

Experiment [1] concerns plasmid-encoded luciferase in HEK293 cells. Nature of the experiment: Transient transfection of luciferase expression plasmid (CMV promoter) with peptide, luciferase in cell lysates. Particulars: for luciferase % of DMSO con-: peptide 2 μM, 24 hrs post-transfection, HEK293, relative to DMSO control; for inhibition of luciferase production (in words): peptide transfected with CMV-luciferase plasmid, HEK293, 24 hrs.

Experiment [2] has as its system luciferase under control of the truncated interleukin-8 (IL-8) promoter in HEK293 cells. Kind of experiment: Transfection of luciferase under truncated IL-8 promoter, TNF-α stimulation. Type of experiment: cell-based, human. Particulars: 24 hrs post-transfection, TNF-α 6 hrs after transfection. An excerpt:
(§1) HEK293 cells were transiently transfected with a construct containing the luciferase coding region under control of the truncated interleukin-8 (IL-8) promoter and peptide I24 and stimulated with tumor necrosis factor (TNF)-α 6 hrs after transfection and analysed 24 hrs post-transfection for expression of luciferase in cell lysates and released IL-8 in the supernatants by ELISA.

For experiment [3], the system named is Escherichia coli. Nature of the experiment: Plasmid copy numbers and β-lactamase mRNA in transformed E. coli by real-time PCR. Particulars: normalized to E. coli single-copy gene. Type of experiment: cell-based. As to the method:
Competent Escherichia coli cells were transformed with a plasmid containing an ampicillin resistance gene and peptide I24. After indicated time-points, total plasmid numbers and β-lactamase mRNA levels were determined by real-time PCR normalized to an E. coli single-copy gene.

In experiment [4] the test system is plasmid-encoded luciferase in COS-7 cells. Nature of the experiment: Transfection of CMV-luciferase plasmid in COS-7 cells, luciferase protein and mRNA. Type of experiment: cell-based, African green monkey. As for the experimental part:
COS-7 African green monkey kidney cells were transfected with an expression plasmid driving luciferase under control of the CMV promoter and luciferase determined in cell lysates. For analysis of expression of luciferase mRNA, total RNA was isolated, treated with DNAse I and subjected to reverse transcription using random hexamers. Real-time PCR was performed with hydrolysis probes detecting luciferase and normalized to 18S rRNA transcript levels.
The cell lines African Green Monkey kidney cells CV-1 and COS-7, as well as the human breast cancer cell line MCF-7 and the human colon cancer cell lines HT-29 were transiently transfected with a plasmid containing luciferase under control of a CMV promoter and different concentrations of peptide I24.

Experiment [5] has as its system plasmid-encoded green fluorescence protein (GFP) in HEK293 cells. Kind of experiment: Transfection of GFP expression plasmid, Western blot and GFP-positive cells. Particulars: 2 μM. Type of experiment: cell-based, human.
In experiment [6] the test system is plasmid-encoded luciferase in CV-1 cells. Kind of experiment: Transfection of CMV-luciferase plasmid in CV-1 cells. Particulars: CV-1, different concentrations. Type of experiment: cell-based, African Green Monkey. An excerpt: (§2) The cell lines African Green Monkey kidney cells CV-1 and COS-7, as well as the human breast cancer cell line MCF-7 and the human colon cancer cell lines HT-29 were transiently transfected with a plasmid containing luciferase under control of a CMV promoter and different concentrations of peptide […].

Experiment [7] concerns Escherichia coli. Kind of experiment: Colony formation of E. coli transformed with antibiotic resistance plasmid and peptide. Type of experiment: cell-based. The text has this:
Competent Escherichia coli cells were transformed with a plasmid containing an ampicillin resistance gene or a kanamycin resistance gene and either DMSO as vehicle control or I24. On the next day, number of colonies was reduced in the presence of peptide I24 compared to the vehicle control (FIG. 11).

Experiment [8] has as its system plasmid-encoded luciferase and neomycin resistance gene mRNA in HEK293 cells. Nature of the experiment: Real-time PCR of luciferase (CMV promoter) and neomycin resistance gene (early SV40 promoter) mRNA from one plasmid. Type of experiment: cell-based, human. Particulars: increasing concentration, 24 hrs, normalized against GAPDH. As to the method:
HEK293 cells were transiently transfected in the presence of increasing concentrations of peptide I24 with an expression plasmid containing luciferase under control of the CMV promoter and the neomycin resistance gene under control of the early SV40 promoter. After 24 hrs, total RNA was isolated from the cells, digested with DNAse I to remove plasmid-DNA and subjected to reverse transcription. Quantitative real-time PCR analysis of luciferase and neomycin mRNA was performed using hydrolysis probes and normalized against GAPDH transcripts.

The subject of experiment [9] is plasmid-encoded luciferase in MCF-7 cells. Kind of experiment: Transfection of CMV-luciferase plasmid in MCF-7 cells. Type of experiment: cell-based, human. Particulars: MCF-7, different concentrations.
From the text: as §2

Experiment [10] has as its system plasmid-encoded luciferase in HT-29 cells. Nature of the experiment: Transfection of CMV-luciferase plasmid in HT-29 cells. Particulars: HT-29, different concentrations. Type of experiment: cell-based, human.
From the text: as §2

For experiment [11], the system named is baculovirus encoding luciferase under control of the CMV promoter. Kind of experiment: Baculovirus-mediated luciferase gene expression in HEK293 cells. Type of experiment: cell-based. Particulars: HEK293 pretreated for 10 minutes. As for the experimental part: A baculovirus was generated with the luciferase coding region under control of the CMV promoter integrated in its viral genome. The baculovirus was applied to HEK293 cells pretreated for 10 minutes with DMSO or increasing concentrations of peptide I24, TAT and the fusion peptide TAT-I24. Luciferase expression is reduced in cells treated with cell-permeable fusion peptide TAT-I24 in a dose-dependent manner (FIG. 7a). Baculovirus-infected cells incubated with DMSO, TAT-I24 or TAT were stimulated with TNF-α and total RNA isolated from cells. After treatment of the RNA with DNAse I, reverse transcription was performed. Luciferase and IL-8 mRNA were analysed by real-time PCR.

Experiment [12] deals with endogenous interleukin-8 in HEK293 cells. Kind of experiment: Endogenous IL-8 release by ELISA in transfected, TNF-α-stimulated cells. Type of experiment: cell-based, human. Particulars: 24 hrs post-transfection.
From the text: as §1

The next experiment concerns vaccinia virus. Type of experiment: cell-based. Particulars: 24 hrs after infection, normalized to GAPDH.

Take CAAFYACFC [I24 M11]: in experiment [1], the “luciferase % of DMSO con-” value is 32.2%.

With CLAFRACFC [I24 M27], the “luciferase % of DMSO con-” value in experiment [1] is 110.9%. The same measure, in the same setting: next, CLAFYAC [I24 M2]: 110.1%. Still for that read-out and setting: next, CLAFYACFAC [I24 M5]: 10.6%.

For “CLAFYACFC (cysteine pairing not given here) [I24]”, the “TNF-α-induced luciferase expression (IL-8 promoter)” value in [2] is on record as “reduced TNF-α-induced luciferase expression”. Besides, the plasmid copy numbers result with Escherichia coli [3] (4 and 6 hrs after transformation) is recorded as “downregulated”. The “β-lactamase mRNA levels” value in the experiment on Escherichia coli [3] is listed as “downregulated”. In addition, the “inhibition of the reporter gene luciferase” value in experiment [4] (COS-7, different concentrations) was “Inhibition of the reporter gene luciferase was observed”; in experiment [6], “Inhibition of the reporter gene luciferase was observed”; in experiment [9], “Inhibition of the reporter gene luciferase was observed”; in experiment [10], “Inhibition of the reporter gene luciferase was observed”. The luciferase protein levels entry in experiment [4] (COS-7, different incubation times) is reported as “downregulated”. In addition, in experiment [4] (COS-7, normalized to 18S rRNA, different incubation times), the “luciferase mRNA levels” value is “downregulated”. Besides, the “GFP production by Western blot” value in [5] is “reduced”. For the same substance, the “number of GFP-positive cells” value in [5] is “reduced”. Besides, the “colony formation, peptide applied after transformation” value with Escherichia coli [7] (applied after transformation is completed) is “inactive”. Besides, the number of colonies result in the experiment with Escherichia coli [7] (peptide applied simultaneously with plasmid (ampicillin or kanamycin resistance gene)) was “reduced”. In addition, the “inhibition of reporter gene expression” value in experiment [1] (2 μM) is “approximately 90%”; in experiment [1] (20 μM), 90%. The “luciferase % of DMSO con-” value in experiment [1] was 12.2%. In [1], the “inhibition of luciferase production (in words)” value is on record as “dose-dependent inhibition of luciferase production”. In addition, the “reduction of luciferase transcripts (CMV promoter)” value in experiment [8] was 87%. Further, the “reduction of neomycin mRNA levels (early SV40 promoter)” value in [8] is given as “about 50%”. The “baculovirus-mediated luciferase expression (in words)” value in [11] was “only weakly active”. Also, the “release of IL-8 (ELISA)” value in experiment [12] was “not affected”. With CLAFYACFCGGGCLAFYACFC [I24 dimer], the “luciferase % of DMSO con-” value in experiment [1] came to 3.8%. In addition, the IC50 in experiment [1] (read-out: IC50 inhibition of plasmid-encoded luciferase levels, transfected together with the plasmid-DNA) was 90 nM.

On to CLAFYACFWC [I24 M20], for which the “luciferase % of DMSO con-” value in [1] turned out to be 5.6%. CLAFYACLWC [I24 M22]: in experiment [1], the “luciferase % of DMSO con-” value was found to be 6.8%. Same read-out and setting: next, CLAFYACRC [I24 M30]: 116.5%.

On to CLAFYARFC [I24 M29], for which the “luciferase % of DMSO con-” value in [1] amounted to 56.3%.

Regarding CLAFYCFAC [I24 M14], the “luciferase % of DMSO con-” value in experiment [1] was 63.2%. CLAFYCFC [I24 M13]: in experiment [1], the “luciferase % of DMSO con-” value is on record as 64.9%. On the same count and under the same terms, the same measure for CLAFYRCFC [I24 M28]: 93.4%; for CLARYACFC [I24 M26]: 128.6%; for CLAYFCFC [I24 M16]: 68.7%.

Turning to CLLYFCFC [I24 M17], in experiment [1], the “luciferase % of DMSO con-” value is given as 16.7%.

Consider CLVFYACFC [I24 M12], for which the “luciferase % of DMSO con-” value in experiment [1] amounted to 11.8%. As to FYACFAC [I24 M10], in experiment [1], the “luciferase % of DMSO con-” value was found to be 104.2%. With FYACFC [I24 M9], the “luciferase % of DMSO con-” value in experiment [1] was 103.6%.

With FYCFAC [I24_M19], in [1], the “luciferase % of DMSO con-” value is reported as 118.6%. Still for that read-out and setting: the same measure for FYCFC [I24 M18]: 107.8%.

As for “GRKKRRQRRRPPQ [TAT, peptide representing the TAT tag alone, reference compound]”, the “inhibition of luciferase production (in words)” value in experiment [1] is “inactive”. In addition, the “rpo22 mRNA levels (in words)” value in the experiment on vaccinia virus was “no inhibition”.

For SAFYACFAC [I24 M7], the “luciferase % of DMSO con-” value in experiment [1] is reported as 75.9%. For the substance SLAFYACFAC [I24 M6], the “luciferase % of DMSO con-” value in experiment [1] worked out at 41.9%. Still for that read-out and setting: the same measure for SLAFYASFS [I24 M4]: 100.5%.

As to SVFYACFAC [I24_M8], in [1] (2 μM), the “activity in the cellular transfection assay (in words)” value is on record as “no inhibitory effect”. For the same substance, the “luciferase % of DMSO con-” value in [1] is reported as 103.7%. Turning to SVFYACFC [I24 M31], the “luciferase % of DMSO con-” value in [1] turned out to be 135.5%. In the case of WSEQCFTCWW [reference compound], the “activity in the cellular transfection assay (in words)” value in experiment [1] (2 μM) is given as “no inhibitory effect”. Besides, the “luciferase % of DMSO con-” value in [1] was 106.2%.
